# According to ChEMBL document CHEMBL1140579, “Synthesis of andrographolide derivatives and their TNF-alpha and IL-6 expression inhibitory activities” (2007):
# Key:
# Details in all cases: J774.A1, 24 h
# J774.A1 [1] = assay: Inhibition of TNFalpha secretion in mouse J774A.1 cells at 20 uM after 24 hrs by ELISA; values are per cent of control
# J774.A1 [2] = assay: IL6 secretion in mouse J774A.1 cells at 20 uM after 24 hrs by ELISA
# J774.A1 [3] = assay: Inhibition of LPS-induced IL6 secretion in mouse J774A.1 cells at 20 uM after 24 hrs by ELISA; values are per cent of control
# J774.A1 [4] = assay: Inhibition of LPS-induced TNFalpha secretion in mouse J774A.1 cells at 20 uM after 24 hrs by ELISA; values are per cent of control
Structure (SMILES),"level, % of control at 20 µM (J774.A1 [1])",% of control at 20 µM (J774.A1 [2]),"level, % of control at 20 µM (J774.A1 [3])","level, % of control at 20 µM (J774.A1 [4])"
C[C@@]12COS(=O)O[C@@H]1CC[C@@]1(C)C3CC(C4=CCOC4=O)O[C@]3(C)CC[C@H]21 (stereo partly drawn),61.8%,79.7%,208%,231%
CCCCCC(=O)O[C@@H]1CC[C@@]2(C)C3CC(C4=CCOC4=O)O[C@]3(C)CC[C@@H]2[C@]1(C)CO (stereo partly drawn),44.4%,69.8%,102%,106%
C=C1CC[C@@H]2[C@](C)(CO)[C@H](O)CC[C@@]2(C)[C@@H]1CC(OC(=O)CC)C1=CCOC1=O (stereo partly drawn),70%,82.6%,74.7%,96.9%
C=C1CC[C@@H]2[C@](C)(CO)[C@H](O)CC[C@@]2(C)[C@@H]1CC(OC(=O)CCCCC)C1=CCOC1=O (stereo partly drawn),79.6%,82.9%,46.6%,76%
C=C1CC[C@@H]2[C@](C)(CO)[C@H](O)CC[C@@]2(C)[C@@H]1CC(OC(=O)c1ccccc1)C1=CCOC1=O (stereo partly drawn),92.9%,82%,37.5%,60.8%
C=C1CC[C@@H]2[C@](C)(CO)[C@H](O)CC[C@@]2(C)[C@@H]1CC(OC(=O)c1ccc(C)cc1)C1=CCOC1=O (stereo partly drawn),152%,128%,32.1%,41.6%
C=C1CC[C@@H]2[C@](C)(CO)[C@H](O)CC[C@@]2(C)[C@@H]1CC(OC(=O)C/C=C/c1ccc2c(c1)OCO2)C1=CCOC1=O (stereo partly drawn),149%,96%,56.9%,61%
CCC(=O)OC[C@@]1(C)[C@H]2CC[C@@]3(C)OC(C4=CCOC4=O)CC3[C@]2(C)CC[C@H]1OC(=O)CC (stereo partly drawn),82.8%,60.5%,110%,115%
C[C@]1(COC(=O)C(=O)CCC(=O)O)[C@H]2CC[C@@]3(C)OC(C4=CCOC4=O)CC3[C@]2(C)CC[C@H]1OC(=O)C(=O)CCC(=O)O (stereo partly drawn),81.7%,55%,114%,129%
C=C1CC[C@@H]2[C@](C)(CO)[C@H](O)CC[C@@]2(C)[C@@H]1CC(OC(C)=O)C1=CCOC1=O (stereo partly drawn),107%,95.1%,44.7%,62.7%
CCCCCC(=O)OC[C@@]1(C)[C@H]2CC[C@@]3(C)OC(C4=CCOC4=O)CC3[C@]2(C)CC[C@H]1OC(=O)CCCCC (stereo partly drawn),35.7%,31.4%,85.2%,43.8%
C=C1CC[C@@H]2[C@](C)(CO)[C@H](O)CC[C@@]2(C)[C@@H]1CC(OC(=O)c1ccc([N+](=O)[O-])cc1)C1=CCOC1=O (stereo partly drawn),65.8%,58.6%,29.2%,60%
C[C@]1(COC=O)[C@H]2CC[C@@]3(C)OC(C4=CCOC4=O)CC3[C@]2(C)CC[C@H]1OC(=O)c1ccccc1 (stereo partly drawn),28.5%,27.7%,85.7%,36.5%
C=C1CC[C@@H]2[C@](C)(CO)[C@H](O)CC[C@@]2(C)[C@@H]1CC(OC(=O)c1cc2c(cc1[N+](=O)[O-])OCO2)C1=CCOC1=O (stereo partly drawn),115%,70.1%,44.6%,94.4%
CC(=O)OC[C@@]1(C)[C@H]2CC[C@@]3(C)OC(C4=CCOC4=O)CC3[C@]2(C)CC[C@H]1OC(C)=O (stereo partly drawn),80%,72.9%,150%,99.4%
C[C@]1(COC(=O)c2ccccc2)[C@H]2CC[C@@]3(C)OC(C4=CCOC4=O)CC3[C@]2(C)CC[C@H]1OC(=O)c1ccccc1 (stereo partly drawn),204%,48.2%,107%,294%
C=C1CC[C@@H]2[C@](C)(CO)[C@H](O)CC[C@@]2(C)[C@@H]1C/C=C1/C(=O)OC[C@H]1O [ANDROGRAPHOLIDE],63.9%,49.2%,56%,62.5%
